# From PubChem BioAssay (NCI)
# Values joined by “and” are separate entries in the source; they are usually repeats but may differ in a detail not shown here. Equal values may be shown once.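 The compound was tested at five concentrations on cells cultured in 96-well plates, with a 48-hour exposure period. Here, GI50 denotes the concentration required for 50% inhibition of growth. TGI: concentration producing complete growth inhibition.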
# Tests used:
# Experiment in all cases: inhibition of tumour cell growth, NCI panel, 48 h
# [1] = test system: SNB-75 CNS
# [2] = test system: SK-MEL-28 melanoma
# [3] = test system: NCI/ADR-RES ovarian
# [4] = test system: UACC-257 melanoma
# [5] = test system: K-562 leukemia
# [6] = test system: NCI-H522 lung
# [7] = test system: MOLT-4 leukemia
# [8] = test system: RPMI-8226 leukemia
# [9] = test system: MALME-3M melanoma
# [10] = test system: SF-539 CNS
SMILES,GI50 [1],TGI [1],GI50 [2],TGI [2],GI50 [3],TGI [3],GI50 [4],TGI [4],GI50 [5],TGI [5],GI50 [6],TGI [6],GI50 [7],TGI [7],GI50 [8],TGI [8],GI50 [9],TGI [9],GI50 [10],TGI [10]
CNC(=O)c1ncccc1Nc1nc(Nc2cc3c(cc2OC)CCCN3C(=O)CN(C)C)nc2[nH]ccc12,3.03 µM,6.43 µM,3.18 µM,6.77 µM,0.724 µM,2.74 µM,0.395 µM,4.71 µM,1.88 µM,7.55 µM,0.638 µM,2.84 µM,1.05 µM,5.76 µM,0.842 µM,3.89 µM,3.65 µM,7.84 µM,1.57 µM,5.13 µM
COC1N(C2CC(O)C(CO)O2)C(=O)NC(=O)C1(F)Br (configuration not stated),7.44 µM,50 µM and 81.6 µM,30 µM,50 µM and > 100 µM,,> 100 µM,42.8 µM,50 µM and > 100 µM,,50 µM and > 100 µM,22.4 µM,50 µM and > 70 µM,13.3 µM,15.8 µM and > 100 µM,34.1 µM,50 µM and > 100 µM,35.1 µM,50 µM and > 100 µM,6.8 µM,50 µM
CSC1=Nc2c(c(C)c(C)n2COC(CO)CO)C2=NC(=O)CN12,63 µM,> 100 µM,> 100 µM,> 100 µM,> 100 µM,> 100 µM,> 100 µM,> 100 µM,> 100 µM,> 100 µM,> 100 µM,> 100 µM,> 100 µM,> 100 µM,> 100 µM,> 100 µM,> 100 µM,> 100 µM,> 100 µM,> 100 µM
CC1(C)OC[C@@H]([C@@]2(CO[Si](c3ccccc3)(c3ccccc3)C(C)(C)C)CC=CC(=O)O2)O1,,,16.7 µM,48.3 µM,5.64 µM,35.1 µM,3.3 µM,9.95 µM,3.91 µM,> 100 µM,5.02 µM,> 100 µM,8.94 µM,> 100 µM,3.55 µM,71.9 µM,2.42 µM,8.48 µM,3.68 µM,9.82 µM
COc1cc(CNc2nc3cc(N)cc(N)c3nc2-c2ccccc2)cc(OC)c1,,,1.76 µM,8.62 µM,5.47 µM,33.2 µM,,> 100 µM,3.6 µM,9.23 µM,2.88 µM,23 µM,3.02 µM,> 100 µM,,6.22 µM,4.86 µM,33.8 µM,5.29 µM,21.4 µM
Cc1nn(-c2ccc(Cl)cc2)c2ncnc(N/N=C/c3ccccc3O)c12,4.03 µM and 0.501 µM,37.9 µM and 4.49 µM,1.56 µM and 0.494 µM,> 100 µM,0.372 µM and 0.356 µM,16.9 µM and 17.4 µM,2.68 µM and 1.31 µM,16.1 µM and 39.3 µM,1.01 µM and 0.435 µM,> 100 µM,0.874 µM and 0.321 µM,> 69.6 µM,0.518 µM and 0.326 µM,> 100 µM,0.699 µM and 0.714 µM,> 100 µM,1.19 µM and 0.508 µM,9.56 µM and 7.85 µM,0.484 µM and 0.455 µM,11.5 µM and 5.99 µM
COc1ccc(OC)c(/C=C/c2nc(=S)n(-c3ccc(Cl)cc3)[nH]2)c1,2.85 µM,> 100 µM,11.1 µM,> 100 µM,3.63 µM,> 100 µM,> 100 µM,> 100 µM,4.95 µM,> 100 µM,4.07 µM,> 100 µM,7.74 µM,> 100 µM,5.22 µM,> 100 µM,70.6 µM,> 100 µM,4.05 µM,97.9 µM
CCn1cc(C(=O)O)c(=O)c2cc(F)c(N3CCN(S(=O)(=O)c4cccc5ccccc45)CC3)cc21,1.89 µM,8.49 µM,6.09 µM,> 100 µM,3.2 µM,> 100 µM,2.72 µM,7.72 µM,3.93 µM,> 100 µM,2.78 µM,8.04 µM,4.46 µM,> 100 µM,2.79 µM,9.73 µM,2.83 µM,7.83 µM,2.43 µM,8.53 µM
CCn1c2c(c3ccccc3c1=O)C(=O)c1ccccc1-2,,> 100 µM,,> 100 µM,,> 100 µM,,> 100 µM,,> 100 µM,,> 100 µM,,> 100 µM,,> 100 µM,,> 100 µM,,39.7 µM
COc1ccc2c(c1)C(=O)c1c-2c(Nc2ccccc2OC)nc2ccccc12,> 100 µM,> 100 µM,> 100 µM,> 100 µM,> 100 µM,> 100 µM,> 100 µM,> 100 µM,> 100 µM,> 100 µM,> 100 µM,> 100 µM,> 100 µM,> 100 µM,> 100 µM,> 100 µM,> 100 µM,> 100 µM,> 100 µM,> 100 µM
COc1ccc2c(N)ncc(C#Cc3cc(C(=O)Nc4ccc(CN5CCN(C)CC5)c(C(F)(F)F)c4)cnc3C)c2c1,0.729 µM,4.38 µM,0.66 µM,1.81 µM,1.69 µM,7.42 µM,1.78 µM,9.22 µM,0.00868 µM,1.02 µM,0.571 µM,1.2 µM,0.396 µM,1.67 µM,0.775 µM,2.25 µM,0.322 µM,1.16 µM,0.597 µM,1.12 µM
COc1cc2c(N3CCN(C(=O)Nc4ccc(OC(C)C)cc4)CC3)ncnc2cc1OCCCN1CCCCC1,3.29 µM,26.4 µM,15.1 µM,30.9 µM,53.1 µM,> 100 µM,10.3 µM,23.6 µM,4.98 µM,> 100 µM,16.6 µM,36.1 µM,12.8 µM,61.2 µM,11.7 µM,> 54.1 µM,14.3 µM,29 µM,6.43 µM,22.3 µM
c1ccc(-c2[nH]ncc2-c2ccnc(-c3ccc(OCCn4ccnc4)cc3)c2)nc1,> 25 µM,> 25 µM,> 25 µM,> 25 µM,> 25 µM,> 25 µM,> 25 µM,> 25 µM,6.44 µM,> 25 µM,> 25 µM,> 25 µM,10 µM,> 25 µM,> 20.6 µM,> 25 µM,12.2 µM,> 25 µM,> 25 µM,> 25 µM
